Reference: article PMC9739815, “Akt/mTOR Targeting Activity of Resveratrol Derivatives in Non-Small Lung Cancer” (Molecules, 2022)

What was measured:
[1] = test system: A549 cells; assay: MTT cell viability assay, A549 cells; assay type: cell-based; details: Homo sapiens, 24 h, 0–200 µM, read-out: IC50 ± SEM of NSCLC cells, A549
Experimental: (§1) NSCLC cells were cultured overnight and treated with various concentrations (0–200 µM) of resveratrol derivatives (RD1-RD5) and resveratrol for 24 h, and then cell viability was analyzed by the 3-(4, 5-dimethylthiazolyl-2)-2, 5-diphenyltetrazolium bromide (MTT) assay to evaluate the percentage of cell viability. All of the data were calculated on the basis of the results of three replicated samples. […] The difference of the structure at C-4 was that the hydroxyl group of RD2 was modified to the methoxy group of RD3 and at C-3, the methoxy group of RD2 was changed to the hydroxyl group of RD3. […] Furthermore, resveratrol decreased cell viability in NSCLC cells (A549, H23, and H460) with the IC50 at more than 200 µM which was the same RD3 (Figure 2a–d). This different action on cancer cells as a result of chemical structure modification has provided an insight for the structure–activity relationship that may facilitate the further development of the potent compound from the lead structure of resveratrol derivatives. Cell viability was investigated by MTT colorimetric assay. All cell lines were cultured at the density of 1 × 10^4 cells per well in a 96-well tissue culture plate and incubated in an incubator. After that, cells were treated with various concentrations of RD1-RD5 for 24 h at 37 °C and analyzed by the MTT assay according to the manufacturer’s protocol (Sigma Chemical, St. Louis, MO, USA). In calculating the cell viability by a microplate reader (Anthros, Durham, NC, USA), the measured absorbance of treated cells were divided by the value of untreated cells and are reported as a percentage.

[2] = test system: H460 cells; assay: MTT cell viability assay, H460 cells; assay type: cell-based; details: Homo sapiens, NCI-H460, 24 h, 0–200 µM, read-out: IC50 ± SEM of NSCLC cells, H460
Experimental: as §1

[3] = test system: H23 cells; assay: MTT cell viability assay, H23 cells; assay type: cell-based; details: Homo sapiens, NCI-H23, 24 h, 0–200 µM, read-out: IC50 ± SEM of NSCLC cells, H23
Experimental: as §1

[4] = test system: DP cells; assay: MTT cell viability assay, normal dermal papilla (DP) cells; assay type: cell-based; details: 24 h; for effect on cell viability percentages in DP cells: normal human dermal papilla cells; for IC50: Human dermal papilla cell, 0–200 µM, read-out: IC50 ± SEM of DP cells
Experimental: To confirm the selective cytotoxicity of resveratrol derivatives (RD2 and RD3) in cancer cells, resveratrol derivatives (RD2 and RD3) and resveratrol were determined for the cytotoxic profile in normal human cells, dermal papilla (DP).
Cell viability was investigated by MTT colorimetric assay. All cell lines were cultured at the density of 1 × 10^4 cells per well in a 96-well tissue culture plate and incubated in an incubator. After that, cells were treated with various concentrations of RD1-RD5 for 24 h at 37 °C and analyzed by the MTT assay according to the manufacturer’s protocol (Sigma Chemical, St. Louis, MO, USA). In calculating the cell viability by a microplate reader (Anthros, Durham, NC, USA), the measured absorbance of treated cells were divided by the value of untreated cells and are reported as a percentage.

[5] = test system: p-mTOR in H23 cells; assay: Immunofluorescence staining of p-mTOR, H23 cells; assay type: cell-based, human; details: 12 h, RD2 effect at 50–100 μM
Experimental: (§2) NSCLC cells (A549 and H23) were treated with RD2 and RD3 (10–100 μM) for 12 h. After which, all cells were collected and the expression levels of Akt, p-Akt, mTOR, and p-mTOR were investigated by Western blot analysis (Figure 5a, Figure 6a, Figure 7a and Figure 8a). […] Immunofluorescence staining of Akt, p-Akt, mTOR, and p-mTOR was performed in RD2 and RD3 treated cells. The results further confirm the effect of RD2 and RD3 on the Akt/mTOR pathway.
(§3) Cells were seeded at a density of 1 × 10^4 cells/well in 6-well plates overnight. Cells were treated with various concentrations resveratrol derivatives ([…]) and were treated for 12 h. Then, they were fixed with 4% paraformaldehyde in PBS for 15 min, permeabilized for 5 min with 0.5% Triton-X, and blocked with 0.1% Triton-X in 10% FBD in PBS for 1 h at room temperature. Cells were added to the primary antibody Akt (#9272), phosphorylated Akt (#4060), mTOR (#2983S), and p-mTOR (#5536S). Then, they were incubated at 4 °C overnight. After that, they were incubated with secondary antibody for 1 h and stained with Hoechst 33342 for 30 min at room temperature in a dark place. The images were visualized under a fluorescent microscope (Olympus DP70, Melville, NY, USA) and analyzed by The ImageJ software.

[6] = test system: A549 cells; assay: Colony formation assay, A549 cells; assay type: cell-based, human; details: for reduction of number of forming colonies: 24 h treatment, 7 days; for reduction of number of forming colonies / decrease of colony size: vs control
Experimental: (§4) Colony formation assay was used to confirm the anti-cancer action of resveratrol derivatives, as it is a cell proliferation assay which can detect the ability of a single cell to grow into a colony. NSCLC cells were seeded and treated with RD2 and RD3 (1–200 μM) for 24 h. The treated cells were subjected to colony formation assay for 7 days. The crystal violet-staining colony represented the colony suppression effect of RD2 and RD3 compared to the untreated control (Figure 3a,b). The RD2 compound dramatically abolished the forming colony. Colony number was absent in response to RD2 at the concentrations of 100 and 200 μM, whereas there was no significant response to RD3 (Figure 3a,b).
(§5) Cells were seeded at a density of 300 cells/well into 6-well plate and then further treated with various concentrations resveratrol derivatives for 24 h after that the medium was replaced and the cell were incubated for colony number and colony size were investigated after fixing with methanol and acetic acid (3:1) solution and staining with 0.05% w/v crystal violet in 4% formaldehyde.

[7] = test system: p-Akt/Akt in A549 cells; assay: Western blot of p-Akt/Akt, A549 cells; assay type: cell-based, human; details: 12 h
Experimental: as §2
(§6) Western blotting was used to detect the presence of specific protein. Cells were seed at a density of 4 × 10^5 cells/well in 6 well plates overnight. Cells were treated with various concentrations RD1-RD5 were treated for 12 h. After treatment, the apoptosis cells were collected by centrifuging media with 1500 rpm for 5 min and aspirating supernatants. Then, cells were washed with cold 1× PBS and incubated with 1X RIPPA 40 µL containing 10× RIPA buffer 100 µL, protease inhibitors (PI) 100 µL, PMSF 10 µL, and Triton × 10 µL for 30 min on ice. BCA protein assay kit from Pierce Biotechnology (Rockford, IL, USA) analyzed protein concentrations. The extracted proteins were separated by 7.5–10% sodium dodecyl sulfate polyacrylamide gel electrophoresis (SDS-PAGE) and transferred to polyvinylidene difluoride membrane (PVDF). Then, the membranes were blocked with 5% non-fat milk powder for 2 h. After that, they were incubated with primary antibody at 4 °C Akt (#9272), phosphorylated Akt (#4060), mTOR (#2983S), and p-mTOR (#5536S) overnight. The membranes were washed with Tris-buffered saline/Tween 20 3 times and incubated with secondary antibodies for 2 h. Finally, the protein bands were detected using chemiluminescence substrate and exposed by Chemiluminescent ImageQuant LAS4000. Protein bands were analyzed using Image J software.

[8] = test system: p-mTOR/mTOR in A549 cells; assay: Western blot of p-mTOR/mTOR, A549 cells; assay type: cell-based, human; details: 12 h
Experimental: as §2, §6

[9] = test system: A549 cells; assay: Hoechst 33342/PI nuclear staining apoptosis assay, A549 cells; assay type: cell-based, human; details: 24 h
Experimental: (§7) Apoptosis is considered as an important mechanism of action of anti-cancer drugs. The important characteristics of apoptotic cells include the nuclear morphological changes, chromatin condensation, and DNA fragmentation. Hoechst 33342 and propidium iodide (PI) double staining was utilized to determine the mode of cell death by monitoring the nucleus morphology of apoptotic cells as well as their membrane integrity. Cells were seeded in a 96-well plate at the density of 1 × 10^4 cells/well and treated with various concentrations of RD2 and RD3 (10–200 μM) for 24 h. The cells were co-stained with Hoechst 33342 and PI. […] The red fluorescence of PI indicated a late apoptosis cell and necrotic cells.
(§8) This method was applied to define apoptotic and necrotic cell death by using nuclear staining with Hoechst 33342. The cells were seeded on 96-well plates at the density 1 × 10^4 cells per well in 96-well plates and incubated overnight. The cells were treated with various concentrations of RD1-RD5 and incubated for 24 h at 37 °C. Afterward, the cells were incubated with Hoechst 33342 (10 μg/mL) / PI (5 μg/mL) solution for 30 min at 37 °C. Then, they were visualized and imaged under a fluorescence microscope (Olympus DP70, Melville, NY, USA). Results are reported as a percentage of apoptotic cells.

[10] = test system: H23 cells; assay: Hoechst 33342/PI nuclear staining apoptosis assay, H23 cells; assay type: cell-based, human; details: 24 h
Experimental: as §7, §8

[11] = test system: p-Akt/Akt in H23 cells; assay: Western blot of p-Akt/Akt, H23 cells; assay type: cell-based, human; details: 12 h
Experimental: as §2, §6

[12] = test system: H23 cells; assay: Colony formation assay, H23 cells; assay type: cell-based, human; details: for reduction of number of forming colonies: 24 h treatment, 7 days; for reduction of number of forming colonies / decrease of colony size: vs control
Experimental: as §4, §5

[13] = test system: p-mTOR/mTOR in H23 cells; assay: Western blot of p-mTOR/mTOR, H23 cells; assay type: cell-based, human; details: 12 h
Experimental: as §2, §6

[14] = test system: p-mTOR in A549 cells; assay: Immunofluorescence staining of p-mTOR, A549 cells; assay type: cell-based, human; details: 12 h, RD2 effect at 50–100 μM
Experimental: as §2, §3

[15] = test system: p-Akt in A549 cells; assay: Immunofluorescence staining of p-Akt, A549 cells; assay type: cell-based, human; details: 10–100 µM, vs untreated control
Experimental: as §2, §3

[16] = test system: p-Akt in H23 cells; assay: Immunofluorescence staining of p-Akt, H23 cells; assay type: cell-based, human; details: 10–100 µM, vs untreated control
Experimental: as §2, §3

Row | Structure (SMILES) | IC50 [1] [µM] | IC50 [2] [µM] | IC50 [3] [µM] | effect on cell viability percentages in DP cells [4] | IC50 [4] [µM] | p-mTOR signal intensity [5] | reduction of number of forming colonies ([6]; 10 μM) [%] | reduction of number of forming colonies ([6]; 100 μM) [%] | reduction of number of forming colonies ([6]; 200 μM) [%] | apoptotic ratio ([9]; 200 μM) [%] | apoptotic ratio ([10]; 200 μM) [%] | reduction of number of forming colonies ([12]; 10 μM) [%] | reduction of number of forming colonies ([12]; 100 μM) [%] | reduction of number of forming colonies ([12]; 200 μM) [%] | p-mTOR signal intensity [14] | further results
1 | COc1cc(CCc2cc(C)c(OC)c(O)c2)cc(OC)c1O [RD1, 5-(4-hydroxy-3,5-dimethoxyphenethyl)-2-methoxy-3-methylphenol] | 164 ± 26.2 | > 200 | 129 ± 8.91 | – | – | – | – | – | – | – | – | – | – | – | – | –
2 | COc1cc(CCc2ccc(O)c(OC)c2)ccc1O [RD2, 4,4′-(ethane-1,2-diyl)bis(2-methoxyphenol)] | 109 ± 10.8 | 138 ± 25.6 | 104 ± 6.08 | did not significantly affect | > 200 | dramatic decrease | 31.04 | 98.18 | 99.40 | 86.30 | 75.79 | 25.43 | 94.16 | 98.23 | dramatic decrease | decrease of colony size ([6]; 100 μM): 71.66%; decrease of colony size ([6]; 200 μM): 85.42%; p-Akt/Akt protein expression levels ([7]; A549 cells, 50 μM, vs untreated control): significant decrease; p-Akt/Akt protein expression levels ([7]; A549 cells, 100 μM, vs untreated control): significant decrease; p-mTOR/mTOR protein expression levels ([8]; 100 μM, vs untreated control): significant decrease; apoptotic ratio ([9]; 10 μM): 23.25%; apoptotic ratio ([9]; 100 μM): 61.26%; apoptotic ratio ([10]; 100 μM): 36.63%; p-Akt/Akt protein expression levels ([11]; 50 μM, vs untreated control): significant decrease; p-Akt/Akt protein expression levels ([11]; 100 μM, vs untreated control): significant decrease; decrease of colony size ([12]; 100 μM): 64.42%; decrease of colony size ([12]; 200 μM): 65.98%; p-mTOR/mTOR protein expression levels ([13]; 100 μM, vs untreated control): significant decrease
3 | COc1ccc(CCc2ccc(O)c(OC)c2)cc1O [RD3, 4-(3-hydroxy-4-methoxyphenethyl)-2-methoxyphenol] | > 200 | > 200 | > 200 | did not significantly affect | > 200 | only minimally affected | 20.44 | 21.94 | 38.91 | 13.25 | 18.57 | 24.83 | 27.70 | 59.74 | only minimally affected | effect on colony size ([6]; 10–200 μM): no significant effect; p-Akt/Akt protein expression levels ([7]; A549 cell, 10–200 μM): increased; p-mTOR/mTOR protein expression levels ([8]; 10–100 μM): no effect; p-Akt intensity [15]: significantly increased; p-Akt intensity [16]: significantly increased; p-Akt/Akt protein expression levels ([11]; 10–100 μM): increased; effect on colony size ([12]; 10–200 μM): no significant effect; p-mTOR/mTOR protein expression levels ([13]; 10–100 μM): no effect
